Source: paper PMC3334918, “Mutagenesis and Functional Studies with Succinate Dehydrogenase Inhibitors in the Wheat Pathogen Mycosphaerella graminicola” (PLoS ONE, 2012)
Values joined by “and” are separate entries in the source; they are usually repeats but may differ in a detail not shown here. Equal values may be shown once.

Experiments:
[1] = tested on: SDH B_P220T (strain Flu110); experiment: in vitro succinate: Q0/DCPIP activity test, purified mitochondria; assay type: biochemical, Mycosphaerella graminicola; conditions: ratio IC50mutant/IC50WT, single determination
Procedure: (§1) To explore the sensitivity profiles conferred by amino acid substitutions at the cellular and mitochondrial level, we determined sensitivity towards 4 different compounds for 26 of the identified substitution types both in vivo using liquid culture growth (AE media) and in vitro using purified mitochondria and the succinate: Q0/DCPIP activity test (Table 3). […] Resistance factors (RF) were determined as the ratio IC50mutant/IC50WT. […] Qp site mutations are well known to influence SDH enzyme activity and stability upon catalysis, [13], [38], [41].
(§2) Strains were grown in 1 liter TSM40 units. Cultures were inoculated at 0.05 OD600 nm and grown on a reciprocal shaker (110 rpm, 22°C) for 5 days. Cells were harvested by vacuum filtration and disrupted in liquid nitrogen using a mortar and pestle. Resultant powder was re-suspended to 10% w/v in mitochondrial extraction buffer (10 mM KHPO4 pH7.2; 10 mM KCl, 10 mM MgCl2, 0.5 M sucrose, 0.2 mM EDTA, 2 mM PMSF). Extract was clarified by centrifugation (5,000 g, 4°C for 10 minutes, 2 times), intact mitochondria were then pelleted at 10,000 g for 20 minutes at 4°C. […] This volume was transferred to conical 1.5 ml tubes and re-centrifuged, 10,000 g for 10 minutes at 4°C. […] Mitochondrial suspensions were brought to a final concentration of 10 mg ml^−1 in extraction buffer and stored at −80°C until used.
(§3) Mitochondrial suspensions were incubated at 30°C for 30 minutes in extraction buffer supplemented with 10 mM succinate prior to enzymatic measurements.
(§4) A reaction plate was equilibrated for 10 minutes at 30°C before starting the reaction. DCPIP reduction was conducted at 30°C and monitored at 595 nm using a HTS7000 microtiterplate reader (Perkin Elmer). For calculations a molecular extinction coefficient of ε = 17 mM^−1 cm^−1 was used.
(§5) Inhibitor concentrations ranged between 1 mM and 0.95 nM with uniform 4× dilution factor steps (11 inhibitor concentrations+DMSO control). 96 wells plates were pre equilibrated at reaction temperature (30°C) for 10 minutes before the reactions were started by the addition of 5 µl preactivated M. graminicola mitochondrial suspension. Calculated absorbance slopes (OD/hour) were used for IC50 calculations using Graphpad Prism 5.0 software non linear curve fitting against log inhibitor concentrations.

[2] = tested on: SDH B_I269V (strain Cbx1); experiment: as above; assay type: biochemical, Mycosphaerella graminicola; conditions: ratio IC50mutant/IC50WT, single determination
Procedure: as §1, §2, §3, §4, §5

[3] = tested on: SDH D_D129T (strain Flu29); experiment: as above; assay type: biochemical, Mycosphaerella graminicola; conditions: ratio IC50mutant/IC50WT, single determination, FR** (full resistance) = no sufficient inhibition detected at highest inhibitor concentration tested
Procedure: as §1, §2, §3, §4, §5

SDH C_S83G (strain Flu1) = experiment: as above; assay type: biochemical, Mycosphaerella graminicola; conditions: ratio IC50mutant/IC50WT, single determination
Procedure: as §1, §2, §3, §4, §5

[4] = tested on: SDH B_H267Q (strain Bos59); experiment: as above; assay type: biochemical, Mycosphaerella graminicola; conditions: ratio IC50mutant/IC50WT, single determination
Procedure: as §1, §2, §3, §4, §5

[5] = tested on: SDH B_H267Y (strain Cbx28); experiment: as above; assay type: biochemical, Mycosphaerella graminicola; conditions: ratio IC50mutant/IC50WT, single determination
Procedure: as §1, §2, §3, §4, §5

[6] = tested on: SDH D_D129G (strain Cbx67); experiment: as above; assay type: biochemical, Mycosphaerella graminicola; conditions: ratio IC50mutant/IC50WT, single determination
Procedure: as §1, §2, §3, §4, §5

[7] = tested on: SDH B_P220L (strain Flu75); experiment: as above; assay type: biochemical, Mycosphaerella graminicola; conditions: ratio IC50mutant/IC50WT, single determination
Procedure: as §1, §2, §3, §4, §5

[8] = tested on: SDH D_D129E (strain Cbx22); experiment: as above; assay type: biochemical, Mycosphaerella graminicola; conditions: ratio IC50mutant/IC50WT, single determination
Procedure: as §1, §2, §3, §4, §5

[9] = tested on: M. graminicola strain Flu110 (SDHB_P220T); experiment: in vivo sensitivity, liquid culture growth (AE media); assay type: cell-based, Mycosphaerella graminicola; conditions: B_P220T, ratio IC50mutant/IC50WT
Procedure: as §1
(§6) Conidial cells were collected from 4 day old V8 agar plates (cultured at 18°C in the dark) using liquid AE and a cell spreader. Cell density was determined and cells re-suspended to a concentration of 5×10^5 cells ml^−1 in AE media. Sterile 96 wells microtiter plates with lids (Costar) were inoculated with 198 µl of this cell suspension (10^5 cells per well) and 2 µl of inhibitor (100× in DMSO). Final inhibitor concentrations were between 0.95 nM and 1 mM with uniform 4× dilution factor steps (11 inhibitor concentrations+1 DMSO control). Plates were incubated for 6 days at 19°C in the dark before cells were re-suspended and measured for growth (OD600 nm). IC50 values were determined by non linear curve fitting on the basis of measured OD values versus log inhibitor concentrations (GraphPad Prism 5.0 software).

[10] = tested on: M. graminicola strain Cbx28 (SDHB_H267Y); experiment: as above; assay type: cell-based, Mycosphaerella graminicola; conditions: B_H267Y, strain Cbx28; ratio IC50mutant/IC50WT
Procedure: as §1, §6

[11] = tested on: M. graminicola strain Cbx67 (SDHD_D129G); experiment: as above; assay type: cell-based, Mycosphaerella graminicola; conditions: D_D129G, ratio IC50mutant/IC50WT
Procedure: as §1, §6

[12] = tested on: M. graminicola strain Flu4 (SDHC_A84V); experiment: as above; assay type: cell-based, Mycosphaerella graminicola; conditions: C_A84V, ratio IC50mutant/IC50WT
Procedure: as §1, §6

[13] = tested on: M. graminicola strain Flu9 (SDHC_R87C); experiment: as above; assay type: cell-based, Mycosphaerella graminicola; conditions: C_R87C, ratio IC50mutant/IC50WT
Procedure: as §1, §6

[14] = tested on: M. graminicola strain Cbx101 (SDHD_D129S); experiment: as above; assay type: cell-based, Mycosphaerella graminicola; conditions: D_D129S, ratio IC50mutant/IC50WT
Procedure: as §1, §6

[15] = tested on: M. graminicola strain Flu7 (SDHB_N225I); experiment: as above; assay type: cell-based, Mycosphaerella graminicola; conditions: B_N225I, ratio IC50mutant/IC50WT
Procedure: as §1, §6

[16] = tested on: M. graminicola strain Bos64 (SDHC_T79I); experiment: as above; assay type: cell-based, Mycosphaerella graminicola; conditions: C_T79I, ratio IC50mutant/IC50WT
Procedure: as §1, §6

[17] = tested on: M. graminicola strain Cbx12 (SDHC_L85P); experiment: as above; assay type: cell-based, Mycosphaerella graminicola; conditions: C_L85P, ratio IC50mutant/IC50WT
Procedure: as §1, §6

[18] = tested on: M. graminicola strain Cbx96 (SDHB_H267N); experiment: as above; assay type: cell-based, Mycosphaerella graminicola; conditions: B_H267N, ratio IC50mutant/IC50WT
Procedure: as §1, §6

[19] = tested on: M. graminicola strain Cbx22 (SDHD_D129E); experiment: as above; assay type: cell-based, Mycosphaerella graminicola; conditions: D_D129E, ratio IC50mutant/IC50WT
Procedure: as §1, §6

CC(C)C1C2CCC1c1c(NC(=O)c3cn(C)nc3C(F)F)cccc12 (centres unmarked) [Isopyrazam]
Resistance Factors (RFs) in vitro [1]: 1.8
Resistance Factors (RFs) in vitro [2]: 3.6
Resistance Factors (RFs) in vitro [3]: 4095 and 4095.5
Resistance Factors (RFs) in vitro (SDH C_S83G (strain Flu1)): 38.6
Resistance Factors (RFs) in vitro [4]: 34.6
Resistance Factors (RFs) in vitro [5]: 142.6
Resistance Factors (RFs) in vitro [6]: 583.2
Resistance Factors (RFs) in vitro [7]: 1.2
Resistance Factors (RFs) in vitro [8]: 145.3
Resistance Factors (RFs) in vivo [9]: 3.8
Resistance Factors (RFs) in vivo [10]: 16.1
Resistance Factors (RFs) in vivo [11]: 22.9
Resistance Factors (RFs) in vivo [12]: 3.5
Resistance Factors (RFs) in vivo [13]: 3.7
Resistance Factors (RFs) in vivo [14]: 10.8
Resistance Factors (RFs) in vivo [15]: 15.0
Resistance Factors (RFs) in vivo [16]: 15.8
Resistance Factors (RFs) in vivo [17]: 10.0
Resistance Factors (RFs) in vivo [18]: 4.5
Resistance Factors (RFs) in vivo [19]: 6.8
